One assay relates to HepG2. Nature of the assay: HepG2 hepatocellular carcinoma cell count after treatment. The assay is classed as cell-based. To be noted: Homo sapiens, 72 h; HepG2, day 3, 50 nM paciltaxel; read-out: inhibiting rate (cell growth).
The next assay concerns Huh7. The assay can be described thus: Huh7 hepatocellular carcinoma cell count after treatment. The assay is classed as cell-based. As to conditions: Homo sapiens, Huh-7, 72 h; Huh7, day 3, 50 nM paciltaxel; read-out: inhibiting rate (cell growth).

This is an account of results in US20060099283A1, “Leaf juice of plectranthus amboinicus for treating cancer and/or tumor” (priority 2004, published 2006).

Experimental for HepG2: HepG2 and Hep3B cells were cultured in minimum essential medium supplemented with 10% fetal calf serum, 2 mM L-glutamine, 50 IU/mL penicillin, and 50 μg/mL streptomycin.
Cultures were maintained at 37° C. in a humidified atmosphere containing 5% CO2.
(§1) Treatment: In all in vitro experiments, 3% of the leaf juice prepared according to Example 1 was added to the cells after subcultured directly.
Cell count: Total cell counts were made by adding 20 μL of the cell suspension to 20 μL of 0.4% trypan blue, and counted under a phase contrast microscope.
The hepatocellular carcinoma cell lines used in the example are HepG2 and Huh7, and the manipulations of the cell culture and treatment are as described in Example 2. The cells were grouped into a control group (without treatment) and experiment groups treated with 5% of leaf juice, 50 nM paciltaxel, and combining 5% of leaf juice and 50 nM paciltaxel. Each group was repeated six times.
Text for Huh7: Cell lines: The following nine human tumor cell lines of different histologic origins were obtained from commercial cell culture collections unless indicated otherwise: HepG2 (haptocellular carcinoma, liver; provided by Dr. C H Huang, National Health Research Institute, Taipei, Taiwan), Hep3B (haptocellular carcinoma, liver; provided by Dr. C H Huang, National Health Research Institute, Taipei, Taiwan), U937 (myeloid leukemia), K562 (chronic myeloid leukemia, bone marrow), Calu-1 (epidermoid carcinoma, lung; provided by Dr. Y C Kuo, National Institute of Traditional Chinese Medicine, Taipei, Taiwan), TL (trophoblast-like cell line, placenta; provided by Dr. C K Ho, Veteran General Hospital, Taipei, Taiwan), Jurket (human lymphoblastoid T cell line), Bowes (human melanoma cell), and Huh7 (hepatocellular carcinoma/ectoderm).
Cultures were maintained at 37° C. in a humidified atmosphere containing 5% CO2. All cell reagents were obtained from Gibco-Invitrogen Co., Ltd (Grand Island, N.Y. U.S.A.) and HyClone (Logan, Utah, U.S.A.).
as §1
Cell count: Total cell counts were made by adding 20 μL of the cell suspension to 20 μL of 0.4% trypan blue, and counted under a phase contrast microscope. […]

On to `CC(=O)O[C@H]1C(=O)[C@@]2(C)[C@H]([C@H](OC(=O)c3ccccc3)[C@]3(O)C[C@H](OC(=O)[C@H](O)[C@@H](NC(=O)c4ccccc4)c4ccccc4)C(C)=C1C3(C)C)[C@]1(OC(C)=O)CO[C@@H]1C[C@@H]2O` [paciltaxel], for which the inhibition at 0.05 µM amounted to 43.8% in the assay with HepG2 and 66.1% with Huh7.
